The values below come from patent US20230027026A1, “FUSED PYRIMIDINE COMPOUNDS, COMPOSITIONS AND MEDICINAL APPLICATIONS THEREOF” (JUBILANT BIOSYS LIMITED, priority 2019, published 2023).

What all share (format): cell-based
One assay relates to A431 cells. Briefly: Cellular proliferation (Alamar Blue) assay, A431. Conditions: Homo sapiens. As to the method: (§1) Example 3: Cellular Proliferation (Alamar Blue) Assays
(§2) • 1. EGFR(D770_N771insSVD) expressing Ba/F3 stable cell line • 2. EGFR (A767_dupASV) expressing Ba/F3 stable cell line • 3. A431 cells • 4. BTER2 (A775_G776insYVMA) expressing Ba/F3 stable cell line • 5. BTER2 (WT) expressing Ba/F3 stable cell line • 6. BT-474 cells
(§3) • 1. Seed cells at 5000 for A431 and 15,000 cells for Ba/F3 in 100 μL/well in complete media (for A431: DMEM with 10% FBS and for Ba/F3 cells: RPMI with 10% FBS) in 96-well tissue culture plate. Leave outer wells without cells for background measurements. Incubate at 37 degree Celsius in 5% CO2 humidified incubator for 16-18 hours. • 2. Add 0.025 ml of 5× concentration compound dilution or DMSO control. Final compound concentration range is 10-0.0005 μM prepared in 3-fold serial dilutions. Incubate for 72 hr at 37 degree Celsius in […] humidified incubator. • 3. Add 0.0125 mL Alamar Blue™ reagent to each well with multi-channel pipette and tap gently on each side of the plate to mix. Incubate for 3 hours at 37 degree Celsius in […] humidified incubator. • 4. Read plates on fluorescence reader (Tecan Spark Control, Device: Spark, Serial #: 1801006040) at 540 nm excitation, 590 nm emission wavelength. • 5. Data analysis was performed using XLfit 5.5.0.5.

The target in assay [1] is EGFR (A767_dupASV) expressing Ba/F3 stable cell line (Homo sapiens, UniProt P00533, DUP767-769, cells depend on it). Kind of assay: Cellular proliferation (Alamar Blue) assay, EGFR A767_dupASV Ba/F3. Conditions: EGFR A767_dupASV Ba/F3, 72 hr, read-out: A767 IC50. How it is done: as §1, §2, §3
Sequence of EGFR (A767_dupASV) expressing Ba/F3 stable cell line (P00533 with tags, fused parts or gaps DUP767-769): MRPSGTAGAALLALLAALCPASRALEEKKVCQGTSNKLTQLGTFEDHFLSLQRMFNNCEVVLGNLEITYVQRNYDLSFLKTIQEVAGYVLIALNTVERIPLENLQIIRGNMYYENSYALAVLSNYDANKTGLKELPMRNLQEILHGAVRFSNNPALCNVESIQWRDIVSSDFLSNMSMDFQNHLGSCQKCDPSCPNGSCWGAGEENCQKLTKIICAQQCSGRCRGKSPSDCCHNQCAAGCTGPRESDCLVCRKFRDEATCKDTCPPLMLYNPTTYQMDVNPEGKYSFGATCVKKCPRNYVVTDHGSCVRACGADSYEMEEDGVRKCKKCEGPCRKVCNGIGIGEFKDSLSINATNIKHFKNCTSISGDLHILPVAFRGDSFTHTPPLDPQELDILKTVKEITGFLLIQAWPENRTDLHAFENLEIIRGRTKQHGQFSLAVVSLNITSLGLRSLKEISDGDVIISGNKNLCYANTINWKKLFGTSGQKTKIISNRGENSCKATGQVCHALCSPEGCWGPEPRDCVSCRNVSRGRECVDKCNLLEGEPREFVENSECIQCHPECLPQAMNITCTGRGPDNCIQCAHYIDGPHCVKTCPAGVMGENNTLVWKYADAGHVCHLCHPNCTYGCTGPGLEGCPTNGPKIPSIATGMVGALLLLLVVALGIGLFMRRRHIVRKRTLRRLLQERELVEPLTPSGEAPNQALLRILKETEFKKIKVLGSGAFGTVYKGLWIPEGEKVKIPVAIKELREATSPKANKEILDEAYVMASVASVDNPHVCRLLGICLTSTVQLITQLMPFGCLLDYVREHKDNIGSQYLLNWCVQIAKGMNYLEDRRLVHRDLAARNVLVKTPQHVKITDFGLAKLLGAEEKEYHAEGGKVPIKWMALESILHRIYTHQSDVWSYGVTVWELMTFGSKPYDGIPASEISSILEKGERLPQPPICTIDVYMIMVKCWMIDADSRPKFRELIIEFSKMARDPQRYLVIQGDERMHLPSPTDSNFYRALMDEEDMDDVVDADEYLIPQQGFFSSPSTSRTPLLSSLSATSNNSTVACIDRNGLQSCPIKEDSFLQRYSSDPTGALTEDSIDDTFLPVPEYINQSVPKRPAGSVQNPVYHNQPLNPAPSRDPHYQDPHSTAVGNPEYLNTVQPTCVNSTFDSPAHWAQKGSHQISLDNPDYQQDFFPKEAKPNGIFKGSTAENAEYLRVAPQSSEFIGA
On the technique in general: Alamar Blue is a resazurin reagent that responds to reducing activity.

Assay [2] addresses EGFR(D770_N771insSVD) expressing Ba/F3 stable cell line (Homo sapiens, UniProt P00533, DUP768-770, cells depend on it). Briefly: Cellular proliferation (Alamar Blue) assay, EGFR D770_N771insSVD Ba/F3. The conditions noted are these: EGFR D770_N771insSVD Ba/F3, 72 hr, read-out: D770 IC50. As to the method:
as §1, §2, §3

Where [3] appears, read: A-431, A431 cells, 72 hr, Alamar Blue, read-out: A431 IC50.

Where two headings read alike, the source gives them in different places.

Sequence of EGFR(D770_N771insSVD) expressing Ba/F3 stable cell line (P00533 with tags, fused parts or gaps DUP768-770): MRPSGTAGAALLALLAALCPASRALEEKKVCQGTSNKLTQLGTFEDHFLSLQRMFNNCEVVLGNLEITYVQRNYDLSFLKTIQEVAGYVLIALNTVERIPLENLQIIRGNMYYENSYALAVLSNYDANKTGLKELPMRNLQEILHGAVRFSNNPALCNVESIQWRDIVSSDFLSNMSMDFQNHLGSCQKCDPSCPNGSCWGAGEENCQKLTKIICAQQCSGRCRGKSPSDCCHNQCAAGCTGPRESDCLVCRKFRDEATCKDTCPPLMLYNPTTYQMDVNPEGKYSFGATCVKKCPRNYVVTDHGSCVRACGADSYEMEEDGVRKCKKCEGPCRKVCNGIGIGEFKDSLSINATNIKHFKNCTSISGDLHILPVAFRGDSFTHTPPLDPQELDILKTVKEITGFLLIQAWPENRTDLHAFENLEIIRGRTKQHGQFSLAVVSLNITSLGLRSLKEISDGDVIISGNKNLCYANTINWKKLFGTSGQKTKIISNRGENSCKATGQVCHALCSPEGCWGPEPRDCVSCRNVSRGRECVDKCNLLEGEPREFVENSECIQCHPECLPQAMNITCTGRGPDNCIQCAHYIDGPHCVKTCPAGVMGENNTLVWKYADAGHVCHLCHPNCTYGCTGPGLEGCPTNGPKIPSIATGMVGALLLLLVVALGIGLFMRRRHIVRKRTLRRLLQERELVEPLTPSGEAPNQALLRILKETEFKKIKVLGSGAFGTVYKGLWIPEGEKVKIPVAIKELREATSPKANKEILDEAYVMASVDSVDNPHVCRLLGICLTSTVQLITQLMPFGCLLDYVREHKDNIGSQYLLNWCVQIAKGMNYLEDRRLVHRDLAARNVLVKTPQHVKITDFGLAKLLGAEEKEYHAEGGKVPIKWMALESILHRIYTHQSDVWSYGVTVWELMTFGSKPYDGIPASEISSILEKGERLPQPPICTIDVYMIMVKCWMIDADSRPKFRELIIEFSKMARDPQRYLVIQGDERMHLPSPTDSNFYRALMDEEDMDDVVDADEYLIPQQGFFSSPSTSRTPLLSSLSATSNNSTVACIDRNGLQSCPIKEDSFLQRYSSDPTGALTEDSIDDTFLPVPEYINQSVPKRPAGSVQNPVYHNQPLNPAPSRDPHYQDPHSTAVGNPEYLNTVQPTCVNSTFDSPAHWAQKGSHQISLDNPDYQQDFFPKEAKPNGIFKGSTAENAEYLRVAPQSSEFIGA

What is called IC50 is the concentration that gives 50% inhibition. Take `CN(C)C/C=C/C(=O)N(C)c1cccc(N2C(=O)N(c3ccccc3)Cc3cnc(Nc4cn(C)nc4Cl)nc32)c1` [Compound 104, (E)-N-(3-(7-((3-chloro-1-methyl-1H-pyrazol-4-yl)amino)-2-oxo-3-phenyl-3,4-dihydropyrimido[4,5-d]pyrimidin-1(2H)-yl)phenyl)-4-(dimethylamino)-N-methylbut-2-enamide]: the IC50 with A431 cells (setting [3]) was not below 10000 nM. Besides, the GI50 was found to be 255 nM in assay [1] and 885 nM in assay [2].
For `CN(C)C/C=C/C(=O)Nc1cccc(N2C(=O)N(Cc3ccccc3)Cc3cnc(Nc4cnn5cccnc45)nc32)c1` [Compound 90, (E)-N-(3-(3-benzyl-2-oxo-7-(pyrazolo[1,5-a]pyrimidin-3-ylamino)-3,4-dihydropyrimido[4,5-d]pyrimidin-1(2H)-yl)phenyl)-4-(dimethylamino)but-2-enamide], the IC50 in the assay with A431 cells (setting [3]) is not below 10000 nM. Besides, the GI50 was determined as 1150 nM in assay [1] and 1850 nM in assay [2].
Consider `CN(C)C/C=C/C(=O)Nc1cccc(N2C(=O)N(Cc3ccccc3)Cc3cnc(Nc4cnc5c(cnn5C)c4)nc32)c1` [Compound 53, (E)-N-(3-(3-benzyl-7-((1-methyl-1H-pyrazolo[3,4-b]pyridin-5-yl)amino)-2-oxo-3,4-dihydropyrimido[4,5-d]pyrimidin-1(2H)-yl)phenyl)-4-(dimethylamino)but-2-enamide], for which the IC50 in the assay on A431 cells (setting [3]) is not below 10000 nM. Also, the GI50 in assay [1] came out at 474 nM; in assay [2] it was 1050 nM.
In the case of `COc1nn(C)cc1Nc1ncc2c(n1)N(c1cccc(NC(=O)/C=C/CN(C)C)c1)C(=O)N(Cc1ccccc1)C2` [Compound 56, (E)-N-(3-(3-benzyl-7-((3-methoxy-1-methyl-1H-pyrazol-4-yl)amino)-2-oxo-3,4-dihydropyrimido[4,5-d]pyrimidin-1(2H)-yl)phenyl)-4-(dimethylamino)but-2-enamide], the IC50 with A431 cells (setting [3]) was not below 10000 nM. Further, the GI50 in assay [1] worked out at 65 nM; in assay [2], 107 nM.
On the same counts, the results for `CN(C)C/C=C/C(=O)Nc1ccc(Cl)c(N2C(=O)N(Cc3ccccc3)Cc3cnc(Nc4cn(C)nc4Cl)nc32)c1` [Compound 86, (E)-N-(3-(3-benzyl-7-((3-chloro-1-methyl-1H-pyrazol-4-yl)amino)-2-oxo-3,4-dihydropyrimido[4,5-d]pyrimidin-1(2H)-yl)-4-chlorophenyl)-4-(dimethylamino)but-2-enamide] are 5440 nM, 694 nM and 900 nM.
As to `CN(C)C/C=C/C(=O)Nc1cccc(N2C(=O)N(Cc3ccccc3)Cc3cnc(Nc4ccn(C)n4)nc32)c1` [Compound 52, (E)-N-(3-(3-benzyl-7-((1-methyl-1H-pyrazol-3-yl)amino)-2-oxo-3,4-dihydropyrimido[4,5-d]pyrimidin-1(2H)-yl)phenyl)-4-(dimethylamino)but-2-enamide], the IC50 in the assay on A431 cells (setting [3]) was not below 10000 nM. The figures for the GI50 in assay [1] and in assay [2] were 244 nM and 341 nM, respectively.
The corresponding values for `COCCn1cc(Nc2ncc3c(n2)N(c2cccc(NC(=O)/C=C/CN(C)C)c2)C(=O)N(Cc2ccccc2)C3)c(Cl)n1` [Compound 92, (E)-N-(3-(3-benzyl-7-((3-chloro-1-(2-methoxyethyl)-1H-pyrazol-4-yl)amino)-2-oxo-3,4-dihydropyrimido[4,5-d]pyrimidin-1(2H)-yl)phenyl)-4-(dimethylamino)but-2-enamide] are not below 10000 nM, 385 nM and 228 nM.
On the same counts, the results for `CN(C)C/C=C/C(=O)Nc1cccc(N2C(=O)N(Cc3ccccc3)Cc3cnc(Nc4cnoc4)nc32)c1` [Compound 58, (E)-N-(3-(3-benzyl-7-(isoxazol-4-ylamino)-2-oxo-3,4-dihydropyrimido[4,5-d]pyrimidin-1(2H)-yl)phenyl)-4-(dimethylamino)but-2-enamide] are not below 10000 nM, 801 nM and 2110 nM.
Turning to `CN(C)C/C=C/C(=O)Nc1cccc(N2C(=O)N(Cc3ccccc3)Cc3cnc(Nc4ccc5c(c4)ncn5C)nc32)c1` [Compound 102, (E)-N-(3-(3-benzyl-7-((1-methyl-1H-benzo[d]imidazol-5-yl)amino)-2-oxo-3,4-dihydropyrimido[4,5-d]pyrimidin-1(2H)-yl)phenyl)-4-(dimethylamino)but-2-enamide], the IC50 in the assay with A431 cells (setting [3]) was not below 10000 nM. The GI50 in assay [1] was found to be 694 nM; in assay [2] it was 929 nM.
The corresponding values for `Cc1nocc1Nc1ncc2c(n1)N(c1cccc(NC(=O)/C=C/CN(C)C)c1)C(=O)N(Cc1ccccc1)C2` [Compound 60, (E)-N-(3-(3-benzyl-7-((3-methylisoxazol-4-yl)amino)-2-oxo-3,4-dihydropyrimido[4,5-d]pyrimidin-1(2H)-yl)phenyl)-4-(dimethylamino)but-2-enamide] are not below 10000 nM, 1700 nM and 2390 nM.
Regarding `C[C@H](c1ccccc1)N1Cc2cnc(Nc3cnn(C)c3)nc2N(c2cccc(NC(=O)/C=C/CN(C)C)c2)C1=O` (single isomer, unassigned) [Compound 133], the IC50 in the assay with A431 cells (A-431, 72 h, read-out: A431 IC50 (nM)) is not below 10000 nM. Further, the GI50 in assay [1] amounted to 1120 nM; in assay [2], 2690 nM.
Turning to `CN(C)C/C=C/C(=O)Nc1cccc(N2C(=O)N(Cc3ccccc3)Cc3cnc(Nc4cnc(N5CCN(C)CC5)nc4)nc32)c1` [Compound 59, (E)-N-(3-(3-benzyl-7-((2-(4-methylpiperazin-1-yl)pyrimidin-5-yl)amino)-2-oxo-3,4-dihydropyrimido[4,5-d]pyrimidin-1(2H)-yl)phenyl)-4-(dimethylamino)but-2-enamide], the IC50 with A431 cells (setting [3]) was not below 10000 nM. Also, the GI50 is 8660 nM in assay [1] and not below 10000 nM in assay [2].
For the compound `CN1CCN(C/C=C/C(=O)Nc2cccc(N3C(=O)N(c4ccccc4)Cc4cnc(Nc5cn(C)nc5Cl)nc43)c2)CC1` [Compound 126, (E)-N-(3-(7-((3-chloro-1-methyl-1H-pyrazol-4-yl)amino)-2-oxo-3-phenyl-3,4-dihydropyrimido[4,5-d]pyrimidin-1(2H)-yl)phenyl)-4-(4-methylpiperazin-1-yl)but-2-enamide], the half-inhibitory concentration (IC50) in the assay on A431 cells (setting [3]) is not below 10000 nM. Moreover, the GI50 worked out at 1090 nM in assay [1] and 2290 nM in assay [2].
Regarding `CN(C)C/C=C/C(=O)Nc1cccc(N2C(=O)N(Cc3ccccc3)Cc3cnc(Nc4cn(CCF)nc4Cl)nc32)c1` [Compound 93, (E)-N-(3-(3-benzyl-7-((3-chloro-1-(2-fluoroethyl)-1H-pyrazol-4-yl)amino)-2-oxo-3,4-dihydropyrimido[4,5-d]pyrimidin-1(2H)-yl)phenyl)-4-(dimethylamino)but-2-enamide], the IC50 with A431 cells (setting [3]) is not below 10000 nM. For the same compound, the values for the GI50 in assay [1] and in assay [2] were 108 nM and 91 nM, respectively.
For the compound `CN(C)C/C=C/C(=O)Nc1cccc(N2C(=O)N(Cc3ccccc3)Cc3cnc(Nc4cn(C)nc4Cl)cc32)c1` [Compound 64, (E)-N-(3-(3-benzyl-7-((3-chloro-1-methyl-1H-pyrazol-4-yl)amino)-2-oxo-3,4-dihydropyrido[4,3-d]pyrimidin-1(2H)-yl)phenyl)-4-(dimethylamino)but-2-enamide], the IC50 with A431 cells (setting [3]) was not below 10000 nM. Moreover, the GI50 stood at 809 nM in assay [1] and 1030 nM in assay [2].
In the case of `COC/C=C/C(=O)Nc1cccc(N2C(=O)N(Cc3ccccc3)Cc3cnc(Nc4cn(C)nc4Cl)nc32)c1` [Compound 76, (E)-N-(3-(3-benzyl-7-((3-chloro-1-methyl-1H-pyrazol-4-yl)amino)-2-oxo-3,4-dihydropyrimido[4,5-d]pyrimidin-1(2H)-yl)phenyl)-4-methoxybut-2-enamide], in the assay on A431 cells (setting [3]), the IC50 is not below 10000 nM. Also, the results for the GI50 in assay [1] and in assay [2] were 336 nM and 342 nM, respectively.
On the same counts, the results for `CN(C)C/C=C/C(=O)Nc1cccc(N2C(=O)N(Cc3ccccc3)Cc3cnc(Nc4cccc5c4CCN5C4CCN(C)CC4)nc32)c1` [Compound 98, (E)-N-(3-(3-benzyl-7-((1-(1-methylpiperidin-4-yl)indolin-4-yl)amino)-2-oxo-3,4-dihydropyrimido[4,5-d]pyrimidin-1(2H)-yl)phenyl)-4-(dimethylamino)but-2-enamide] are not below 10000 nM, 322 nM and 138 nM.
As for `CN(C)C/C=C/C(=O)Nc1cccc(N2C(=O)N(Cc3ccccc3)Cc3cnc(Nc4ccc(N5CCOCC5)nc4)nc32)c1` [Compound 54, (E)-N-(3-(3-benzyl-7-((6-morpholinopyridin-3-yl)amino)-2-oxo-3,4-dihydropyrimido[4,5-d]pyrimidin-1(2H)-yl)phenyl)-4-(dimethylamino)but-2-enamide], the IC50 in the assay with A431 cells (setting [3]) was not below 10000 nM. The GI50 in assay [1] was found to be 224 nM; in assay [2], 337 nM.
